Measurements as given in US11590139B2, “Substituted aminopurine compounds, compositions thereof, and methods of treatment therewith” (Signal Pharmaceuticals, LLC, priority 2014, dated 2023).

test system: Lox-IMVI melanoma cell line; test: Lox-IMVI anti-proliferative assay (growth inhibition, Cell Titer-Glo); assay type: cell-based, human; conditions: Homo sapiens; IC50 activity level in the cell-based Lox-IMVI anti-proliferative assay; read-out: Activity
Experimental: Determination of the Growth Inhibitory Effect of Aminopurine Compounds. The Lox-IMVI melanoma cell line (Source: NCI-DCTD, catalog No. 0507283) was maintained and tested in RPMI+10% FBS. The seeding density for the cell line was optimized to ensure assay linearity in 384-well plates.
Increasing concentrations of Aminopurine Compound (0.5 nM to 10 μM) were spotted in a 10-point serial dilution fashion (3-fold dilution) in duplicate within the plate via an acoustic dispenser (EDC ATS-100) into an empty 384-well plate. The dimethyl sulfoxide (DMSO) concentration was kept constant for a final assay concentration of 0.2% DMSO. Prior to testing, cells were grown and expanded in culture flasks to provide sufficient amounts of starting material. Cells were then diluted to their desired densities and added directly to the compound-spotted 384-well plates. Cells were allowed to grow for 72 hours in 5% CO2 at 37° C. At the time when exposure of cells to compound began (t0), initial cell number was assessed via a viability assay (Cell Titer-Glo) by quantifying the level of luminescence generated by adenosine-5′-triphosphate (ATP) present in viable cells. After 72 hours, cell viability of compound-treated cells was assessed via Cell Titer-Glo Luminescent Cell Viability Assay (Promega Corporation, Madison, Wis.) and read for luminescence.
All data was normalized and represented as a percentage of the DMSO-treated control cells after 72 h. Results were expressed as a IC50 value, which is the compound concentration required to inhibit 50% of the untreated control cells during the 72 hours of treatment.
A Four Parameter Logistic Model (Sigmoidal Dose-Response Model) was used to determine the compound's IC50. y=(A+((B−A)/(1+((C/x)^D))))
wherein: • A=YMin • B=YMax • C=EC50 • D=Hill Slope • IC50 is the compound concentration when Y=50% of DMSO control • Y=Luminescence unit
All inhibition curves were processed and evaluated using XLFit and Activity Base (IDBS).

`Cc1cc(Cl)cc(F)c1Nc1nc2cnc(NC3CCOCC3)nc2n1[C@H]1CC[C@@H](C(N)=O)CC1` [Example 75, (1s,4s)-4-(8-(4-chloro-2-fluoro-6-methylphenylamino)-2-(tetrahydro-2H-pyran-4-ylamino)-9H-purin-9-yl)cyclohexanecarboxamide] and `Cc1cc(F)cc(F)c1Nc1nc2cnc(NC3CCOCC3)nc2n1[C@H]1CC[C@@H](C(N)=O)CC1` [Example 86, (1s,4s)-4-(8-(2,4-difluoro-6-methylphenylamino)-2-(tetrahydro-2H-pyran-4-ylamino)-9H-purin-9-yl)cyclohexanecarboxamide] cannot be ordered by IC50: greater than 1000 nM for the first, greater than 1000 nM for the second.

First: NC(=O)[C@H]1CC[C@@H](n2c(Nc3c(Cl)cc(Cl)cc3Cl)nc3cnc(N[C@@H]4CCOC4)nc32)CC1 [Example 76, (1S,4s)-4-(2-((R)-tetrahydrofuran-3-ylamino)-8-(2,4,6-trichlorophenylamino)-9H-purin-9-yl)cyclohexanecarboxamide]
Second: NC(=O)[C@H]1CC[C@@H](n2c(Nc3c(Cl)cc(Cl)cc3Cl)nc3cnc(N[C@H]4CCOC4)nc32)CC1 [Example 87, (1R,4s)-4-(2-((S)-tetrahydrofuran-3-ylamino)-8-(2,4,6-trichlorophenylamino)-9H-purin-9-yl)cyclohexanecarboxamide]
The IC50 of the first is lower: 250 to 500 nM for the first, 500 to 1000 nM for the second. The first is the more potent here.

Compared with `CO[C@H]1CC[C@H](Nc2ncc3nc(Nc4c(Cl)cc(Cl)cc4Cl)n([C@H]4CC[C@@H](C(N)=O)CC4)c3n2)CC1` [Example 77, (1s,4s)-4-(2-((1r,4r)-4-methoxycyclohexylamino)-8-(2,4,6-trichlorophenylamino)-9H-purin-9-yl)cyclohexanecarboxamide], `NC(=O)[C@H]1CC[C@@H](n2c(Nc3c(Cl)cc(Cl)cc3Cl)nc3cnc(N[C@H]4CC[C@H](O)CC4)nc32)CC1` [Example 78, (1s,4s)-4-(2-((1r,4r)-4-hydroxycyclohexylamino)-8-(2,4,6-trichlorophenylamino)-9H-purin-9-yl)cyclohexanecarboxamide] is higher in IC50: 500 to 1000 nM for the first, greater than 1000 nM for the second. The first is the more potent here.

`Cc1c(Cl)ccc(F)c1Nc1nc2cnc(NC3CCOCC3)nc2n1[C@H]1CC[C@@H](C(N)=O)CC1` [Example 79, (1s,4s)-4-(8-(3-chloro-6-fluoro-2-methylphenylamino)-2-(tetrahydro-2H-pyran-4-ylamino)-9H-purin-9-yl)cyclohexanecarboxamide] and `Cc1ccc(F)c(Nc2nc3cnc(NC4CCOCC4)nc3n2[C@H]2CC[C@@H](C(N)=O)CC2)c1Cl` [Example 91, (1s,4s)-4-(8-(2-chloro-6-fluoro-3-methylphenylamino)-2-(tetrahydro-2H-pyran-4-ylamino)-9H-purin-9-yl)cyclohexanecarboxamide] cannot be ordered by IC50: greater than 1000 nM for the first, greater than 1000 nM for the second.

Compared with `Cc1cc(Cl)c(Nc2nc3cnc(NC4CCOCC4)nc3n2[C@H]2CC[C@@H](C(N)=O)CC2)cc1Cl` [Example 80, (1s,4s)-4-(8-(2,5-dichloro-4-methylphenylamino)-2-(tetrahydro-2H-pyran-4-ylamino)-9H-purin-9-yl)cyclohexanecarboxamide], `Cc1cc(Cl)c(Nc2nc3cnc(NC4CCOCC4)nc3n2[C@H]2CC[C@@H](C(N)=O)CC2)cc1C` [Example 101, (1s,4s)-4-(8-(2-chloro-4,5-dimethylphenylamino)-2-(tetrahydro-2H-pyran-4-ylamino)-9H-purin-9-yl)cyclohexanecarboxamide] is higher in IC50: 500 to 1000 nM for the first, greater than 1000 nM for the second.

`NC(=O)[C@H]1CC[C@@H](n2c(Nc3ccc(F)c(Cl)c3Cl)nc3cnc(NC4CCOCC4)nc32)CC1` [Example 81, (1s,4s)-4-(8-(2,3-dichloro-4-fluorophenylamino)-2-(tetrahydro-2H-pyran-4-ylamino)-9H-purin-9-yl)cyclohexanecarboxamide] and `NC(=O)[C@H]1CC[C@@H](n2c(Nc3ccc(Cl)c(F)c3Cl)nc3cnc(NC4CCOCC4)nc32)CC1` [Example 82, (1s,4s)-4-(8-(2,4-dichloro-3-fluorophenylamino)-2-(tetrahydro-2H-pyran-4-ylamino)-9H-purin-9-yl)cyclohexanecarboxamide] cannot be ordered by IC50: greater than 1000 nM for the first, greater than 1000 nM for the second.

`Cc1ccc(Nc2nc3cnc(NC4CCOCC4)nc3n2[C@H]2CC[C@@H](C(N)=O)CC2)c(F)c1F` [Example 83, (1s,4s)-4-(8-(2,3-difluoro-4-methylphenylamino)-2-(tetrahydro-2H-pyran-4-ylamino)-9H-purin-9-yl)cyclohexanecarboxamide] and `Cc1ccc(Nc2nc3cnc(NC4CCOCC4)nc3n2[C@H]2CC[C@@H](C(N)=O)CC2)c(Cl)c1F` [Example 84, (1s,4s)-4-(8-(2-chloro-3-fluoro-4-methylphenylamino)-2-(tetrahydro-2H-pyran-4-ylamino)-9H-purin-9-yl)cyclohexanecarboxamide] fall in the same range of IC50: 500 to 1000 nM for the first, 500 to 1000 nM for the second.

`Cc1ccc(Nc2nc3cnc(NC4CCOCC4)nc3n2[C@H]2CC[C@@H](C(N)=O)CC2)c(Cl)c1Cl` [Example 85, (1s,4s)-4-(8-(2,3-dichloro-4-methylphenylamino)-2-(tetrahydro-2H-pyran-4-ylamino)-9H-purin-9-yl)cyclohexanecarboxamide] and `Cc1c(Nc2nc3cnc(NC4CCOCC4)nc3n2[C@H]2CC[C@@H](C(N)=O)CC2)ccc(Cl)c1F` [Example 89, (1s,4s)-4-(8-(4-chloro-3-fluoro-2-methylphenylamino)-2-(tetrahydro-2H-pyran-4-ylamino)-9H-purin-9-yl)cyclohexanecarboxamide] cannot be ordered by IC50: greater than 1000 nM for the first, greater than 1000 nM for the second.

Compared with `NC(=O)[C@H]1CC[C@@H](n2c(Nc3c(Cl)cc(Cl)cc3Cl)nc3cnc(NC4CCC(F)(F)CC4)nc32)CC1` [Example 88, (1s,4s)-4-(2-(4,4-difluorocyclohexylamino)-8-(2,4,6-trichlorophenylamino)-9H-purin-9-yl)cyclohexanecarboxamide], `NC(=O)[C@H]1CC[C@@H](n2c(Nc3c(Cl)cc(Cl)cc3Cl)nc3cnc(NC4CCS(=O)(=O)CC4)nc32)CC1` [Example 92, (1s,4s)-4-(2-((1,1-dioxidotetrahydro-2H-thiopyran-4-yl)amino)-8-((2,4,6-trichlorophenyl)amino)-9H-purin-9-yl)cyclohexane-1-carboxamide] is higher in IC50: 500 to 1000 nM for the first, greater than 1000 nM for the second.

First: NC(=O)[C@H]1CC[C@@H](n2c(Nc3c(F)ccc(F)c3Cl)nc3cnc(NC4CCOCC4)nc32)CC1 [Example 90, (1s,4s)-4-(8-(2-chloro-3,6-difluorophenylamino)-2-(tetrahydro-2H-pyran-4-ylamino)-9H-purin-9-yl)cyclohexanecarboxamide]
Second: NC(=O)[C@H]1CC[C@@H](n2c(Nc3cc(F)c(F)cc3Cl)nc3cnc(NC4CCOCC4)nc32)CC1 [Example 100, (1s,4s)-4-(8-(2-chloro-4,5-difluorophenylamino)-2-(tetrahydro-2H-pyran-4-ylamino)-9H-purin-9-yl)cyclohexanecarboxamide]
The IC50 of the first is lower: 250 to 500 nM for the first, greater than 1000 nM for the second. The first is the more potent here.

`NC(=O)[C@H]1CC[C@@H](n2c(Nc3ccccc3Cl)nc3cnc(NC4CCCC4)nc32)CC1` [Example 93, (1s,4s)-4-(8-(2-chlorophenylamino)-2-(cyclopentylamino)-9H-purin-9-yl)cyclohexanecarboxamide] and `NC(=O)[C@H]1CC[C@@H](n2c(Nc3ccc(Cl)cc3Cl)nc3cnc(NC4CCCC4)nc32)CC1` [Example 94, (1s,4s)-4-(2-(cyclopentylamino)-8-(2,4-dichlorophenylamino)-9H-purin-9-yl)cyclohexanecarboxamide] cannot be ordered by IC50: greater than 1000 nM for the first, greater than 1000 nM for the second.

`NC(=O)[C@H]1CC[C@@H](n2c(Nc3ccc(Cl)cc3F)nc3cnc(NC4CCCC4)nc32)CC1` [Example 95, (1s,4s)-4-(8-(4-chloro-2-fluorophenylamino)-2-(cyclopentylamino)-9H-purin-9-yl)cyclohexanecarboxamide] and `CC(C)Nc1ncc2nc(Nc3ccc(Cl)cc3Cl)n([C@H]3CC[C@@H](C(N)=O)CC3)c2n1` [Example 96, (1s,4s)-4-(8-(2,4-dichlorophenylamino)-2-(isopropylamino)-9H-purin-9-yl)cyclohexanecarboxamide] cannot be ordered by IC50: greater than 1000 nM for the first, greater than 1000 nM for the second.

First: CC(C)Nc1ncc2nc(Nc3ccc(F)cc3Cl)n([C@H]3CC[C@@H](C(N)=O)CC3)c2n1 [Example 97, (1s,4s)-4-(8-(2-chloro-4-fluorophenylamino)-2-(isopropylamino)-9H-purin-9-yl)cyclohexanecarboxamide]
Second: CC(C)Nc1ncc2nc(Nc3c(F)cc(Cl)cc3Cl)n([C@H]3CC[C@@H](C(N)=O)CC3)c2n1 [Example 99, (1s,4s)-4-(8-(2,4-dichloro-6-fluorophenylamino)-2-(isopropylamino)-9H-purin-9-yl)cyclohexanecarboxamide]
The IC50 of the first is higher: greater than 1000 nM for the first, 250 to 500 nM for the second.

For `CC(C)Nc1ncc2nc(Nc3c(F)ccc(F)c3F)n([C@H]3CC[C@@H](C(N)=O)CC3)c2n1` [Example 98, (1s,4s)-4-(2-(isopropylamino)-8-(2,3,6-trifluorophenylamino)-9H-purin-9-yl)cyclohexanecarboxamide], the IC50 was greater than 1000 nM.
